# According to paper PMC5030486, “Neprilysin is a Mediator of Alternative Renin-Angiotensin-System Activation in the Murine and Human Kidney” (Scientific Reports, 2016):
# Ends that are not written are not given here. Peptide text beside a SMILES is read from it. * marks the point of attachment. Cbz = O=C(OCc1ccccc1)*
# Tests used:
# [1] = molecular target: T1, NEP (Mus musculus, UniProt Q61391); assay: MALDI-Imaging of Ang I to Ang-(1-7) turnover in murine kidney cryo-sections; assay type: biochemical
# T1 construct: Consecutive tissue sections were prepared from fresh frozen kidneys (n = 4); from tissue; host or cells: murine kidney cryo-sections (fresh frozen)
# T1 sequence (Q61391 1-750): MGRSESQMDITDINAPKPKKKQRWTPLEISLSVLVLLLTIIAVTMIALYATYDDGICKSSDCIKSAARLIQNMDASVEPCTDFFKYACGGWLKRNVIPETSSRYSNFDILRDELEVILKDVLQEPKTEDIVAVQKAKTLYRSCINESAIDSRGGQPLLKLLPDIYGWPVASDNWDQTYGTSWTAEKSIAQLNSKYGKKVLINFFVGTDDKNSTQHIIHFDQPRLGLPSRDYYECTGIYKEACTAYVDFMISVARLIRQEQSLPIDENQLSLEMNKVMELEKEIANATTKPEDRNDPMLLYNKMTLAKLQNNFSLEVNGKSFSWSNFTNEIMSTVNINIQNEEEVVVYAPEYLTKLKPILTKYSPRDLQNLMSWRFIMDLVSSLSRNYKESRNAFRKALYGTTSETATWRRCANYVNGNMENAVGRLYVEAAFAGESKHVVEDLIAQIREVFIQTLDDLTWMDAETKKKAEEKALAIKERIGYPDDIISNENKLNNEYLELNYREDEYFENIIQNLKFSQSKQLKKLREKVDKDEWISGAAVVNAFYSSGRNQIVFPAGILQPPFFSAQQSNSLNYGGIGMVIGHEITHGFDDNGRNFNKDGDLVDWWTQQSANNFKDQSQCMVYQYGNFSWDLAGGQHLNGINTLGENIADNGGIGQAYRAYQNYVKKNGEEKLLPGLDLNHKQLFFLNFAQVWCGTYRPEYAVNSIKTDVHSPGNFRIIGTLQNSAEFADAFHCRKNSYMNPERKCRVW
# Method: Consecutive tissue sections were prepared from fresh frozen kidneys (n = 4) as previously described[37] and incubated with 772 μM Ang I at 37 °C for 5 min. […] The imaging technique is described in detail elsewhere.
# [2] = test system: Ang-(1-7) and Ang II formation from Ang I (NEP, PEP, ACE, chymase) in human kidney homogenates
# Method: (§1) This study was approved by the Ethics Committee of the Medical University of Vienna (EK #1496/2014) and was performed in accordance to the good clinical practice guidelines. Written informed consent was obtained before biopsies were taken perioperative from 5 kidney donors in 2014. Renal biopsies were either snap frozen in liquid nitrogen for angiotensin metabolism analysis or fixed in formalin for histological examination.
# Metabolic RAS analysis was performed by Attoquant Diagnostics GmbH, Vienna, Austria. Renal biopsies of mice and humans were extracted and homogenized in phosphate-buffered saline (PBS) using low-energy sonication. The metabolism of spiked Ang I, Ang II (Fisher Scientific) or recombinant murine AGT (Sino Biological Inc.) for the renin activity assay, respectively, was assayed in homogenates after ex vivo incubation at 37 °C in presence or absence of specific enzyme inhibitors. […] Aminopeptidase Inhibitor (10 μM, Sigma-Aldrich) was added to all samples.
# The enzyme activity was calculated by determining the inhibitor sensitive part of product formation in incubated samples and is presented as a product formation in ng of the corresponding angiotensin product per μg protein per hour. In order to proof linearity of the assay in dependence of enzyme abundance, Ang I and Ang II metabolism were assayed in serial diluted kidney homogenates (Supplementary Fig. 6). All experiments were performed in the linear range of the assay.
# (§2) Angiotensin peptide quantification by liquid chromatography tandem-mass spectrometry analysis (LC-MS/MS) was performed by Attoquant Diagnostics GmbH (Vienna, Austria) as previously described.
# [3] = test system: ACE; conditions: cited from earlier work
# [4] = test system: Ang-(1-7) and Ang II formation from Ang I (NEP, PEP, ACE) in murine kidney homogenates; assay type: biochemical, mouse
# Method: as §2
# [5] = test system: CES1; conditions: liver; cited from earlier work
# [6] = test system: Ang-(1-7) formation from Ang II (ACE2, PCP) in human kidney homogenates; assay: Ang II turnover to Ang-(1-7) in human kidney biopsy homogenates; assay type: biochemical; conditions: human kidney biopsy homogenate, inhibitor sensitive formation rate of Fig. 2d, mean ± s.d., n = 5
# Method: as §1
# Metabolic RAS analysis was performed by Attoquant Diagnostics GmbH, Vienna, Austria. Renal biopsies of mice and humans were extracted and homogenized in phosphate-buffered saline (PBS) using low-energy sonication. The metabolism of spiked Ang I, Ang II (Fisher Scientific) or recombinant murine AGT (Sino Biological Inc.) for the renin activity assay, respectively, was assayed in homogenates after ex vivo incubation at 37 °C in presence or absence of specific enzyme inhibitors. […]
# The enzyme activity was calculated by determining the inhibitor sensitive part of product formation in incubated samples and is presented as a product formation in ng of the corresponding angiotensin product per μg protein per hour. […]
# as §2
# [7] = test system: murine plasma equilibrium angiotensin levels; assay: Equilibrium plasma angiotensin metabolites in mice treated i.p. with NEP inhibitor; assay type: in vivo, mouse; conditions: 50 mg/kg i.p., 4 hours, mean ± s.e.m., n = 5
# Method: (§3) 10 to 12 weeks old female wild-type with C57BL/6j background were maintained at the animal care facility of the University Duesseldorf, Germany under a 12 h light/dark cycle, normal chew (SNIFF, Soest) and tap water ad libitum. Vehicle (50% DMSO) or NEP-inhibitor (LBQ657 (Sigma-Aldrich): 50 mg/kg) were administrated i.p. 4 hours prior to kidney and heparin plasma sampling. Kidneys were obtained as given above, while heparin plasma was incubated for 30 min at 37 °C for equilibrium analysis, stabilized[38] and stored at −80 °C until shipment.
# as §2
# [8] = test system: murine kidney angiotensin levels; assay: Renal angiotensin metabolites in mice treated i.p. with NEP inhibitor; assay type: in vivo, mouse; conditions: 50 mg/kg i.p.
# Method: as §3, §2
# [9] = test system: Ang-(1-7) formation from Ang II (ACE2, PCP) in murine kidney homogenates; assay: Ang II turnover to Ang-(1-7) in murine kidney homogenates with and without enzyme inhibitors; assay type: biochemical, mouse; conditions: Ang II spike, 37 °C, LC-MS/MS, n = 4
# Method: as §2
# [10] = heparin plasma incubated 30 min at 37 °C, LC-MS/MS
# [11] = ratio of equilibrium plasma levels
# [12] = 4 hours prior to sampling, LC-MS/MS, mean ± s.e.m., n = 5
# [13] = ratio of renal levels, 4 hours, mean ± s.e.m., n = 5
# [14] = mouse kidney homogenate, Ang I spike, 37 °C, lisinopril 10 μM, LC-MS/MS, n = 4
compound,measurement,setting,value
O=C(O)CNC(=O)C(CS)Cc1ccccc1 (racemic) [DL-thiorphan],"Effect on Ang-(1-7) formation from Ang I, MALDI-Imaging intensity","[1]; murine kidney cryo-sections, 772 μM Ang I, 37 °C, 5 min, 100 μM DL-thiorphan in presence of 10 μM lisinopril, n = 4, p = 0.045 vs. 10 μM lisinopril",significant reduction of Ang-(1-7) formation from Ang I
same,Effect on turnover from Ang I to Ang-(1-7),"[2]; human kidney biopsy homogenate, DL-thiorphan 100 μM with lisinopril 10 μM, n = 5",reduced significantly
same,ACE inhibitory activity,[3],weak ACE inhibitory activity
same,Reduction of Ang-(1-7) formation from Ang I,"[4]; mouse kidney homogenate, Ang I spike, 37 °C, DL-thiorphan 100 μM used only in combination with lisinopril 10 μM, LC-MS/MS",75.2 ± 1.8%
same,Effect on turnover from Ang I to Ang-(1-7),"[4]; mouse kidney homogenate, DL-thiorphan 100 μM with lisinopril 10 μM, n = 4",reduced significantly
CCOC(=O)[C@H](C)C[C@@H](Cc1ccc(-c2ccccc2)cc1)NC(=O)CCC(=O)O [AHU-377],Activation of the prodrug,[5],physiologically activated in the liver by CES1
"CC[C@H](C)[C@H](NC(=O)[C@H](Cc1ccc(O)cc1)NC(=O)[C@@H](NC(=O)[C@H](CCCNC(=N)N)NC(=O)[C@@H](N)CC(=O)O)C(C)C)C(=O)N[C@@H](Cc1cnc[nH]1)C(=O)N1CCC[C@H]1C(=O)N[C@@H](Cc1ccccc1)C(=O)O [Ang II, angiotensin II]","Enzymatic contribution of ACE2, Ang II to Ang-(1-7)",[6],88.2 ± 4.3%
C[C@H](C[C@@H](Cc1ccc(-c2ccccc2)cc1)NC(=O)CCC(=O)O)C(=O)O [LBQ657],Equilibrium plasma Ang I,[7]; [10],970 ± 341 pg/mL
same,Equilibrium plasma Ang II,[7]; [10],1423 ± 540 pg/mL
same,Equilibrium plasma Ang-(1-5),[7]; [10],73 ± 34 pg/mL
same,Equilibrium plasma Ang-(1-7),[7]; [10],20 ± 7 pg/mL
same,Equilibrium plasma Ang-(2-8),[7]; [10],269 ± 91 pg/mL
same,Equilibrium plasma Ang-(3-8),[7]; [10],114 ± 36 pg/mL
same,Equilibrium plasma Ang-(1-7)/Ang I (x100),[7]; [11],1.8 ± 0.2
same,Equilibrium plasma Ang-(1-7)/Ang II (x100),[7]; [11],1.5 ± 0.2
same,Renal Ang I,[8]; [12],277 ± 31 pg/g
same,Renal Ang II,[8]; [12],642 ± 99 pg/g
same,Renal Ang-(1-7),[8]; [12],35 ± 4 pg/g
same,Renal Ang-(1-9),[8]; [12],162 ± 10 pg/g
same,Renal Ang-(2-8),[8]; [12],195 ± 28 pg/g
same,Renal Ang-(2-10),[8]; [12],89 ± 16 pg/g
same,Reduction of Ang-(1-7) levels in the murine kidney,"[8]; 4 hours prior to sampling, LC-MS/MS, p = 0.026",53.1 ± 10.6%
same,Renal Ang-(1-7)/Ang I (x100),[8]; [13],13.4 ± 2.0
same,Renal Ang-(1-7)/Ang II (x100),[8]; [13],6.1 ± 1.2
CC(C)C[C@H](N[C@@H](Cc1cncn1Cc1cc(Cl)cc(Cl)c1)C(=O)O)C(=O)O [MLN-4760],"Effect on Ang-(1-7) formation from Ang II, ACE2 KO kidney","[9]; ACE2 KO mouse kidney homogenate in PBS, MLN-4760 10 μM, aminopeptidase inhibitor 10 μM in all samples",no effect
same,"Effect on Ang-(1-7) formation from Ang II, wild-type kidney","[9]; wild-type mouse kidney homogenate in PBS, MLN-4760 10 μM",reduced Ang-(1-7) formation in wild-type mice to the level of ACE2 KOs
"O=C[C@@H]1CCCN1C(=O)[C@@H]1CCCN1C(=O)OCc1ccccc1 [ZPP, N-benzyloxycarbonyl-prolyl-prolinal] (Cbz-Pro-Pro-aldehyde)","Effect on Ang-(1-7) formation from Ang I, ZPP on top of lisinopril and DL-thiorphan","[4]; mouse kidney homogenate, Ang I spike, 37 °C, ZPP 20 μM, LC-MS/MS, n = 4",further significantly reduced Ang-(1-7) formation
same,"Effect on Ang-(1-7) formation from Ang II, ZPP added to MLN-4760","[9]; mouse kidney homogenate, ZPP 20 μM in addition to MLN-4760 10 μM",abolished Ang-(1-7) formation completely
CC(C)C[C@H](NC(=O)[C@@H](NC(=O)N[C@@H](Cc1ccccc1)C(=O)O)[C@@H]1CCN=C(N)N1)C(=O)N[C@H](C=O)Cc1ccccc1 [chymostatin],Effect on ACE independent Ang II formation from Ang I,"[2]; human kidney biopsy homogenate, Ang I spike, 37 °C, chymostatin 10 μM, LC-MS/MS, n = 5",At least a part of ACE independent Ang II formation was blocked
NCCCC[C@H](N[C@@H](CCc1ccccc1)C(=O)O)C(=O)N1CCC[C@H]1C(=O)O [lisinopril],Ang-(1-7) signal with increasing inhibitor concentration,"[1]; murine kidney slices incubated with Ang I, lisinopril 0 μM–10 μM, MALDI-Imaging",concentration dependent increase of Ang-(1-7)
same,Effect on Ang II formation from Ang I,"[2]; human kidney biopsy homogenate, Ang I spike, 37 °C, lisinopril 10 μM, LC-MS/MS, n = 5",not able to completely abolish Ang II formation
same,Effect on Ang II formation from Ang I,[4]; [14],efficiently blocked
same,Effect on Ang-(1-7) formation from Ang I,[4]; [14],remained unaffected
"DRVYIHPFHL [Ang I, angiotensin I]","Enzymatic contribution of ACE, Ang I to Ang II",[2],25 ± 7%
same,"Enzymatic contribution of NEP, Ang I to Ang-(1-7)",[2],63 ± 10%
same,"Enzymatic contribution of PEP, Ang I to Ang-(1-7)",[2],10 ± 3%
same,"Enzymatic contribution of chymase, Ang I to Ang II",[2],2 ± 2%
same,Share of Ang I converted to Ang II,[2],27 ± 9%
same,Share of Ang I converted to Ang-(1-7),[2],73 ± 9%
same,"Enzymatic contribution of NEP, Ang I to Ang-(1-7)",[4],50 ± 1%
same,"Enzymatic contribution of PEP, Ang I to Ang-(1-7)",[4],23 ± 1%
same,Share of Ang I converted directly to Ang-(1-7),[4],73.4 ± 2.1%
same,Share of Ang I metabolized to Ang II (ACE),[4],26.6 ± 2.1%
